Source: patent US10174401B2, “Methods for binding and precipitating gold using microbial-derived metallophores and their uses” (McMaster University, priority 2013, dated 2019)
*1 amine or outer side, *2 acyl side, *3 side chain or, on linkers, in order; H or OH if unused. Where a SMILES comes first, the peptide text is derived from it. [ ]: non-standard residue; d: D form. The star is where a group is joined. ξ: configuration not given here. NH(1-OH-2-oxopiperidin-3-yl) = O=C1C(N*)CCCN1O; ξOrn(N(OH)Ac) = CC(=O)N(O)CCCC(N)C(=O)O; ξOrn(N(OH)CHO) = NC(CCCN(O)C=O)C(=O)O; ξAsp(βξ-Me) = CC(C(=O)O)C(N)C(=O)O; X2 = C/C=C(/N[*:1])C(=O)[*:2]; X1 = CC(N)C(O)C(C)C(=O)*

Columns and labels:
[1] = TEM imaging of siderophore-gold reactions
Procedure: Transmission electron microscopy imaging was performed with a JEOL JEM 1299 EX TEMSCAN transmission electron microscope (JEOL, Peabody, Mass., USA) operated at an accelerating voltage of 80 kV. Sample preparation: a 2 μL drop of a diluted (10×) siderophore-gold reaction was deposited over a formvar-coated TEM grid, and was allowed to dry under ambient conditions before being imaged. Gold nanoparticle size distribution was determined using the software, ImageJ.

[2] = Gold-siderophore reactions (gold nanoparticle formation, gold-iron competition, LC-MS of supernatant); details: for gold nanoparticle formation (visual inspection): 10 mM AuCl3 reacted with equimolar chelator; for concentration of metallophore after AuCl3 exposure: LC-MS, 2 hr exposure, vs unreacted control; for reaction with gold after pre-exposure to / in presence of iron: equimolar FeCl3
Procedure: Ten microliters of the AuCl3 stock solution was aliquoted into separate 200 μL microcentrifuge tubes, followed by the addition of 10 μL of each respective siderophore or metal chelator, where water was used as a control. The reaction was monitored over time and images were taken. After 2 h, a sample of the mixture was diluted 10× and analyzed by transmission electron microscopy (TEM) (see below). The remaining sample was centrifuged at 13,000 rpm for ten minutes. A 10 μL sample of the supernatant was diluted in 90 μL of water and subsequently analyzed by LC-MS. A control of unreacted siderophore and metal chelator of the same concentration was also analyzed for comparison. […] Reactions were monitored similarly. UV-vis spectrums were obtained using a Synergy 4 microplate reader (Biotek).

[3] = Exposure of acidobactin A to gold; details: when exposed to gold
D. acidovorans = test: Growth of D. acidovorans in presence of gold precipitate or AuCl3 (MIC); assay type: cell-based, Delftia acidovorans
Procedure: The assay was set up as follows: 50 μL of ddH2O containing 3.2, 1.6, 1.4, 1.2, 1.0, 0.8, 0.6, 0.4, and 0.2 mM delftibactin A was added in quadruplicate to wells within a 96-well plate. A 1.6 mM stock solution of AuCl3 was made and 50 μL was added to each well containing delftibactin A. No-delftibactin A and no-AuCl3 controls containing only water were also added to the 96-well plate in quadruplicate. This was incubated for 30 min at room temperature, during which time 10 mL of an overnight culture of D. acidovorans, grown in ACM was centrifuged and resuspended in 5 mL sterilized ddH2O. After 30 min incubation of AuCl3 with delftibactin, 100 μL of concentrated culture was added to each well. Final concentration of AuCl3 was 400 μM and the final concentrations of delftibactin A were 800, 400, 350, 300, 250, 200, 150, 100, and 50 μM. After 30 minutes of incubation at room temperature, mixtures were serial diluted and plated onto Nutrient Agar plates and incubated at 30° C. Colonies were counted after 24 h of growth. Results are shown as mean±s.d.; n=4. To assess whether D. acidovorans could grow in the presence of the gold precipitate, several milligrams of delftibactin A and AuCl3 were reacted 1:1 overnight and centrifuged, and washed once with water to concentrate the precipitate. The precipitate was resuspended in ddH2O at a final concentration of 100 mM, calculated using a molecular weight of 1227 g/mol, corresponding to a gold-delftibactin A species. D. acidovorans was grown overnight in a 96-well plate in 100 μL of ACM containing 20 μM to 10 mM gold precipitate or AuCl3. […] The MIC of AuCl3 was determined to be roughly 10 μM.

D. acidovorans ΔdelG [4] = test: Delftibactin-mediated protection against gold toxicity (CFU after acute exposure); assay type: cell-based, Delftia acidovorans
Procedure: Cultures of D. acidovorans wild type and D. acidovorans ΔdelG were grown in deferrated ACM for 2 days at 30° C. In 96-well plates, 200 μL of wild type or mutant grown culture were incubated in the presence and absence of 100 μM AuCl3. At the same time, the mutant culture was also complemented with […] delftibactin (biological levels) in the presence of 100 μM AuCl3. After 30 minutes, cultures were serially diluted in water and plated on LB agar to determine the colony forming units of D. acidovorans after gold exposure. Results are shown as mean s.d.; n=4; Two-tailed student's t-test.

[5] = Test strip: metallophore on C18-silica TLC plate developed with gold chloride; details: immobilized on C18-silica TLC slide, developed with gold chloride solution
Procedure: Pictures were taken after 10 min.
A solution containing gold chloride was used to develop the strip. Pictures were taken at the times indicated.

[6] = Citrate-gold and delftibactin A-gold comparison; details: room temperature, neutral pH
Procedure: Stock 10 mM solutions of sodium citrate and purified delftibactin A were mixed with and equimolar solution of AuCl3 and allowed to react at room temperature in 1.5 mL Eppendorf tubes. Photographs were taken from the initial addition of gold to 1 h exposure. Similarly, TEM experiments were performed by mixing 10 mM stock solutions of AuCl3 and either delftibactin A or sodium citrate 1:1 on a formvar-carbon coated 100-square mesh copper grid, imaging after 10 min AuCl3 exposure.

[7] = Procedure: The gold-delftibactin A interaction was determined through two separate experiments. First, AuCl3 was held constant at 2.5 mM and the interaction with delftibactin A was monitored by measuring the absorption of AuCl3 remaining in solution after precipitation by delftibactin A through comparison with a standard curve. Briefly, 2.5 mM AuCl3 was incubated with 5, 2.5, 1.25, 0.6125, 0.3063, and 0.1531 mM delftibactin A for 1 h. Solutions were filtered with a 0.22 μM Acrodisc (Pall, USA) to remove insoluble delftibactin A-gold precipitate. 100 μl of the filtered reaction was placed in a 96-well plate and the absorbance was read at 300 nm using a SpectraMax 384 Plus (Molecular Devices, USA). Absorption was compared to an AuCl3 standard curve to determine the concentration of AuCl3 remaining in solution. To monitor the amount of delftibactin A remaining in solution after reaction with gold a similar experiment was conducted. Delftibactin A (2.5 mM) was incubated with 5, 2.5, 1.25, 0.6125, 0.3063, and 0.1531 mM AuCl3 for 1 h. Solutions were filtered similar to above. Reaction mixtures were analyzed using a Waters Alliance 2695 RP-HPLC separations module, equipped with a Waters 2998 photodiode array and a Luna 5u C18 column (250×4.60 mm, Phenomenex). The mobile phase was linear from 2% acetonitrile, 98% water+5 mM (NH4)2CO3 at 2 min to 14% acetonitrile at 18 min at a flow rate of 1 mL/min. […]
[8] = Transmission electron microscopy of delftibactin A:Au(III) complexes; details: delftibactin A:AuCl3 2:1, 10 min
Excerpt: Delftibactin A was reacted with AuCl3 with a molar ratio equal to 2:1 for ten minutes. Each separate reaction of delftibactin A with AuCl3 was examined using a Phillips CM-10 transmission electron microscopy operating at 80 kV. The whole-mount sample was absorbed and dried on a formvar-carbon coated 100-square mesh copper grid and rinsed with filter sterilized, de-ionized water to remove any salt precipitates.

D. acidovorans ΔdelG [9] = test: Gold protective comparison of delftibactin A and B (growth curves); assay type: cell-based, Delftia acidovorans; details: 125 μM AuCl3 + 125 μM delftibactin
Procedure: Twenty microliter reactions were set up as follows: water only, 5 mM AuCl3, 5 mM AuCl3+delftibactin A, and 5 mM AuCl3+delftibactin B. Reactions were initiated with the addition of delftibactin A or B. After 2 h, reactions were serially diluted to 125 μM in ACM containing D. acidovorans ΔdelG diluted 1:1000 from an overnight culture. Optical density was monitored using a TECAN Sunrise™ microplate reader at 600 nm for 36 h. Results are a mean of three growth curves for each condition from a single representative experiment.

[10] = Time course of AuCl3 precipitation by delftibactins in absence and presence of FeCl3
Procedure: (§1) Twenty microliter reactions were set up as follows: i) water only, ii) 5 mM delftibactin A, iii) 5 mM AuCl3 iv) 5 mM FeCl3 v) 5 mM AuCl3+5 mM FeCl3 vi) 5 mM delftibactin B+5 mM AuCl3 vii) delftibactin B+5 mM AuCl3+5 mM FeCl3 viii) delftibactin B+5 mM FeCl3. Reactions were initiated by the addition of delftibactin and images were taken at time points indicated. After 2 h, reactions were serially diluted to 30 μM final concentration in ACM containing D. acidovorans ΔdelG diluted 1:1000 from an overnight culture. Optical density was monitored using a TECAN Sunrise™ microplate reader at 600 nm for 36 h. Results are a mean of three growth curves for each condition from a single representative experiment. As a second test of delftibactin protective capacity, D. acidovorans ΔdelG cells from an overnight culture were inoculated 1:1000 into 100 μL ACM in a 96-well plate containing 0 or 10 μM AuCl3, and then provided 0 or 100 μM delftibactin. Cultures were grown for 84 h at 250 rpm at 30° C. in a TECAN Sunrise™ microplate reader, measuring at 600 nm to assess growth. Results are a mean of three growth curves for each condition from a single representative experiment.

D. acidovorans ΔdelG [11] = test: Gold detoxification in chronic exposure by delftibactin A (growth curves); assay type: cell-based, Delftia acidovorans
Procedure: as §1

Compound: CC(C)(C1=N[C@@](C)(C(=O)O)CS1)[C@H](O)[C@@H]1CSC([C@H]2CSC(c3ccccc3O)=N2)N1 (stereo partly drawn) [yersiniabactin, reference compound]
- nanoparticles seen by TEM ([1]; after 2 h reaction with AuCl3): did not create any distinct nanoparticles
- gold nanoparticle formation (visual inspection) [2]: does not generate substantial quantities of gold nanoparticles

Compound: CC1CC(=O)NC(CCCN(O)C=O)C(O)CC(=O)NC(C(C)O)C(=O)NC(CCCNO)C(=O)NC(CO)C(=O)NC(C(O)C(=O)O)C(=O)O1 (stereo not drawn) [acidobactin A]
- gold complexing [3]: shown the gold complexing phenomenon

Compound: O=C(O)CN(CCN(CC(=O)O)CC(=O)O)CC(=O)O [EDTA, ethylenediaminetetraacetic acid]
- gold nanoparticle formation (visual inspection) [2]: fail to develop a similar effect even after prolonged exposure to gold ions

Compound: [Cl][Au]([Cl])[Cl] [AuCl3]
- concentration at which toxic (D. acidovorans; D. acidovorans): 10 µM
- MIC of AuCl3 (D. acidovorans; D. acidovorans grown overnight in ACM, 96-well plate): roughly 10 μM
- growth of D. acidovorans (D. acidovorans; overnight in ACM containing 20 μM to 10 mM gold precipitate or AuCl3): No growth
- increase in sensitivity to gold toxicity in the ΔdelG strain (D. acidovorans ΔdelG [4]; ΔdelG vs wild-type, 100 μM AuCl3, 30 min exposure, CFUs): 102.8 fold

Compound: CC(=O)N(O)CCCC[C@H](NC(=O)CC(O)(CC(=O)N[C@@H](CCCCN(O)C(C)=O)C(=O)O)C(=O)O)C(=O)O [aerobactin]
- gold nanoparticle formation (visual inspection) [2]: fail to produce defined gold nanoparticles

Compound: O=C(N[C@H]1COC(=O)[C@@H](NC(=O)c2cccc(O)c2O)COC(=O)[C@@H](NC(=O)c2cccc(O)c2O)COC1=O)c1cccc(O)c1O [enterobactin]
- gold nanoparticle formation (visual inspection) [2]: considerable gold nanoparticle formation
- concentration of metallophore after AuCl3 exposure [2]: remained unchanged
- reaction with gold after pre-exposure to / in presence of iron [2]: reacts with gold to a similar extent as when iron is not present

Compound: C/C=C(/NC(=O)CNC(=O)C(C)NC(=O)C(NC(=O)C(C)C(O)C(C)N)C(C)C(=O)O)C(=O)NC(CCCN(O)C=O)C(=O)NC(C)C(=O)NC(CCCNC(=N)N)C(=O)NC1CCCN(O)C1=O (stereo not drawn) [delftibactin A] (X1-[ξAsp(βξ-Me)]AG[X2][ξOrn(N(OH)CHO)]AR-{NH(1-OH-2-oxopiperidin-3-yl)}; configuration not given here)
- darkening of test strip [5]: darkening can be seen
- timescale of creating gold structures from Au3+ [6]: seconds
- rescue of ΔdelG strain from gold toxicity (D. acidovorans ΔdelG [4]; exogenous purified delftibactin 30 sM, 100 μM AuCl3, 30 min): rescued
- solubility on complexing to gold [7]: abrupt and total loss of solubility
- co-precipitation with gold ([7]; 2.5 mM AuCl3, end-point assays): co-precipitate with gold from solution
- octahedral gold particle formation ([1]; TEM): also produces octahedral gold particles
- gold nanoparticle formation (visual inspection) [2]: rapidly undergo a characteristic blackening
- concentration of metallophore after AuCl3 exposure [2]: decreased
- reaction with gold after pre-exposure to / in presence of iron [2]: gold reducing power is reduced
- nature of gold precipitate by TEM [8]: abundance of colloidal gold nanoparticles and octahedral gold platelets
- detoxification / protection against AuCl3 toxicity (D. acidovorans ΔdelG [9]): more protective against AuCl3 toxicity than delftibactin B
- gold precipitation in presence of iron ([10]; equimolar 5 mM AuCl3 + 5 mM FeCl3): gold precipitation would proceed in the presence of high concentrations of iron
- toxicity (D. acidovorans ΔdelG [11]): nontoxic
- protection from chronic gold toxicity (D. acidovorans ΔdelG [11]; exogenous addition to ΔdelG cultures, 100 μM delftibactin A + 10 μM AuCl3, 84 h): sufficient to overcome chronic gold toxicity

Compound: c1ccc(-c2ccccn2)nc1 [bipyridyl]
- gold nanoparticle formation (visual inspection) [2]: fail to develop a similar effect even after prolonged exposure to gold ions

Compound: C/C=C(/NC(=O)CNC(=O)C(C)NC(=O)C(NC(=O)C(C)C(O)C(C)N)C(C)C(=O)O)C(=O)NC(CCCN(O)C(C)=O)C(=O)NC(C)C(=O)NC(CCCNC(=N)N)C(=O)NC1CCCN(O)C1=O (stereo not drawn) [delftibactin B] (X1-[ξAsp(βξ-Me)]AG[X2][ξOrn(N(OH)Ac)]AR-{NH(1-OH-2-oxopiperidin-3-yl)}; configuration not given here)
- gold nanoparticle formation (visual inspection) [2]: rapidly undergo a characteristic blackening
- detoxification / protection against AuCl3 toxicity (D. acidovorans ΔdelG [9]): decreased detoxification
- gold reduction efficiency ([10]; 5 mM AuCl3, compared with delftibactin A): less efficient in gold reduction
